Measurements as given in the supplement of paper PMC12463676, “Small-molecule dissolution of stress granules by redox modulation benefits ALS models” (Nature Chemical Biology, 2025).

Compound: NC(=O)CCCCC1CCSS1 [lipoamide]
Experiment: thermal stability z-score vs DMSO; higher = more thermally stabilized by treatment
Conditions: HeLa; lipoamide concentration 100 µM; arsenate co-treatment: none
Experimental: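 Cellular thermal proteome profiling in HeLa cells. Cells were treated with 100 µM lipoamide for 1 h, with or without 1 mM arsenate for a further 1 h, then heated to ten temperatures (37-66.3 °C), and soluble protein was quantified by TMT mass spectrometry relative to 0.1% DMSO controls. The thermal stability score (sum of log2 fold changes minus the abundance score) was transformed to a z-score; mean of n = 3 experiments.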
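Also: each temperature applied for 3 min, abundance score taken as mean log2 fold change at the two lowest temperatures, z-score obtained by mean subtraction and division by SD.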

UniProt Q9Y285, sequence (Q9Y285 whole entry): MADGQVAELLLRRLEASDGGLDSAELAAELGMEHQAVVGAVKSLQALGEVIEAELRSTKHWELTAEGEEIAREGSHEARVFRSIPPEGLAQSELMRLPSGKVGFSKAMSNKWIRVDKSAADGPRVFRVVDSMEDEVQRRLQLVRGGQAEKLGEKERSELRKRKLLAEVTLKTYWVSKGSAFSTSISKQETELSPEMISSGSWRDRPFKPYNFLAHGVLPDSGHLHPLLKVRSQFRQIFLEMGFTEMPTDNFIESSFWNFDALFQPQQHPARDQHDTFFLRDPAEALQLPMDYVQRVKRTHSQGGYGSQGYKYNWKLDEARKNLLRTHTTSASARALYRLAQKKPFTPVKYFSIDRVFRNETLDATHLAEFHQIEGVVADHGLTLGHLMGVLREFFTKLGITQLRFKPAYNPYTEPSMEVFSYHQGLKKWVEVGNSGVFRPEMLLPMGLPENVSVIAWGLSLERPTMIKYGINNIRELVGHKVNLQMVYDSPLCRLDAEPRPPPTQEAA
UniProt P49427, sequence (P49427 whole entry): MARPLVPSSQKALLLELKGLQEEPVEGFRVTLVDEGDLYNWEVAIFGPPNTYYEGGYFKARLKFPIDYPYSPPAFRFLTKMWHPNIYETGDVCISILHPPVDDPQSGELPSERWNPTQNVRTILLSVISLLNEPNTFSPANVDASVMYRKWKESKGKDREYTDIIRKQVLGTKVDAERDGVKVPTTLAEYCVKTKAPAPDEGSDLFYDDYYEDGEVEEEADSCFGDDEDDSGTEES
UniProt Q7Z5Y7, sequence (Q7Z5Y7 whole entry): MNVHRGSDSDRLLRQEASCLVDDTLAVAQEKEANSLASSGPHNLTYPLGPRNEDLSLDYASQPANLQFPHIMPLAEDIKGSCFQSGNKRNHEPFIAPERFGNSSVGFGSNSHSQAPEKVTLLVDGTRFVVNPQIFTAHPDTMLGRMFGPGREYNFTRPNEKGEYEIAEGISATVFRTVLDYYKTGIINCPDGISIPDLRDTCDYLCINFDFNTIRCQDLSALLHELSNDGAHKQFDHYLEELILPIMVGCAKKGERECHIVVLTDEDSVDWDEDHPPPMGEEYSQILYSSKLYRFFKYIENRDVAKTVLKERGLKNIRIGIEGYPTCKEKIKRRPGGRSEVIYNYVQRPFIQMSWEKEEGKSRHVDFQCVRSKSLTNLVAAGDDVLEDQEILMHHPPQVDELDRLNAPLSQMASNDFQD
UniProt Q9NVP2, sequence (Q9NVP2 whole entry): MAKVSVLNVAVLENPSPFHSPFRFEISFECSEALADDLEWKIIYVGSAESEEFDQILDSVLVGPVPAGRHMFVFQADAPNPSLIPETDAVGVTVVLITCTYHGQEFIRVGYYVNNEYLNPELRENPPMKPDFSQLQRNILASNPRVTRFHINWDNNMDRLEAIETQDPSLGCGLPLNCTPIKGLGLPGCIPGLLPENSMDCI
UniProt Q3SXM5, sequence (Q3SXM5 whole entry): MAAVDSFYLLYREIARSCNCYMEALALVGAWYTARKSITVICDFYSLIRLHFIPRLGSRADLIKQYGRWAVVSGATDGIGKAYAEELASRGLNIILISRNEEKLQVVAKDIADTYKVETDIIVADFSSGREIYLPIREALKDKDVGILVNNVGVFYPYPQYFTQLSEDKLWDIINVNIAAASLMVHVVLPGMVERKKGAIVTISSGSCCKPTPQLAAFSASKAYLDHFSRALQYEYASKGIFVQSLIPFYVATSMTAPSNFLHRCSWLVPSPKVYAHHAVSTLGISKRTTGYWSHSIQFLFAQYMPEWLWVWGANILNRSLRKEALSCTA
UniProt Q8WXD5, sequence (Q8WXD5 whole entry): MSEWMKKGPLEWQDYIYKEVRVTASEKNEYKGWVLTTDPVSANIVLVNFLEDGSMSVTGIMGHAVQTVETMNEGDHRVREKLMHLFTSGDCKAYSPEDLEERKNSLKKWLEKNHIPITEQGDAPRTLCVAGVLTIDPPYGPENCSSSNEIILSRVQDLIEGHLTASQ
UniProt P06241, sequence (P06241 whole entry, looked up): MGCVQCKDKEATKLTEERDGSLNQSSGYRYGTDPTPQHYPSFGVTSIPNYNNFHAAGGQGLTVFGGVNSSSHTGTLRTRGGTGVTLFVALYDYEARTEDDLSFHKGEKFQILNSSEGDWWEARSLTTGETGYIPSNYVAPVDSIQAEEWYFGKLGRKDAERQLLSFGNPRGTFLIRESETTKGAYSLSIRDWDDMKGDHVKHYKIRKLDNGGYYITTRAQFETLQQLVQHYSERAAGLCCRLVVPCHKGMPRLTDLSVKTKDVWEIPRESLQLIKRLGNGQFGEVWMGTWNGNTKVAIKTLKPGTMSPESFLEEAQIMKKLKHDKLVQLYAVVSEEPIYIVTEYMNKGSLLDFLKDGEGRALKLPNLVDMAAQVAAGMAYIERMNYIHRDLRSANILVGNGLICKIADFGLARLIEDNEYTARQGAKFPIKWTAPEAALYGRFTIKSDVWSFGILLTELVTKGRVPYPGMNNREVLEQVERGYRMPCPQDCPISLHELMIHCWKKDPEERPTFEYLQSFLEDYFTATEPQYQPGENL
UniProt Q96MW5, sequence (Q96MW5 whole entry): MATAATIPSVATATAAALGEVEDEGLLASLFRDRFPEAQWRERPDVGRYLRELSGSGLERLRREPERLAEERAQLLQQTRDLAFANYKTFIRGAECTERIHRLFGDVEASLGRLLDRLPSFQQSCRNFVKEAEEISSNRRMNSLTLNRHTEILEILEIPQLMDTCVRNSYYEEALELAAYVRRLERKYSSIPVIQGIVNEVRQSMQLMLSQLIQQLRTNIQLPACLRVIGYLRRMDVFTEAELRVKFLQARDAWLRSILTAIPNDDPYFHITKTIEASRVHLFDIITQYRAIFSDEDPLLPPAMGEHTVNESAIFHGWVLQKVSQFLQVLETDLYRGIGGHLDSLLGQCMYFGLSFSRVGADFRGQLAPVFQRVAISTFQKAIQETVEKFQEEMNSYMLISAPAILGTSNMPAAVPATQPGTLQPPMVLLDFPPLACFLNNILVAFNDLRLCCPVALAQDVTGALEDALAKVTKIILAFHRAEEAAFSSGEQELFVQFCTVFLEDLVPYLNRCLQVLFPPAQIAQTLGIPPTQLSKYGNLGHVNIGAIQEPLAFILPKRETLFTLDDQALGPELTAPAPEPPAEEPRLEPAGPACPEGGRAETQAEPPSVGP
UniProt Q6P1M3, sequence (Q6P1M3 whole entry): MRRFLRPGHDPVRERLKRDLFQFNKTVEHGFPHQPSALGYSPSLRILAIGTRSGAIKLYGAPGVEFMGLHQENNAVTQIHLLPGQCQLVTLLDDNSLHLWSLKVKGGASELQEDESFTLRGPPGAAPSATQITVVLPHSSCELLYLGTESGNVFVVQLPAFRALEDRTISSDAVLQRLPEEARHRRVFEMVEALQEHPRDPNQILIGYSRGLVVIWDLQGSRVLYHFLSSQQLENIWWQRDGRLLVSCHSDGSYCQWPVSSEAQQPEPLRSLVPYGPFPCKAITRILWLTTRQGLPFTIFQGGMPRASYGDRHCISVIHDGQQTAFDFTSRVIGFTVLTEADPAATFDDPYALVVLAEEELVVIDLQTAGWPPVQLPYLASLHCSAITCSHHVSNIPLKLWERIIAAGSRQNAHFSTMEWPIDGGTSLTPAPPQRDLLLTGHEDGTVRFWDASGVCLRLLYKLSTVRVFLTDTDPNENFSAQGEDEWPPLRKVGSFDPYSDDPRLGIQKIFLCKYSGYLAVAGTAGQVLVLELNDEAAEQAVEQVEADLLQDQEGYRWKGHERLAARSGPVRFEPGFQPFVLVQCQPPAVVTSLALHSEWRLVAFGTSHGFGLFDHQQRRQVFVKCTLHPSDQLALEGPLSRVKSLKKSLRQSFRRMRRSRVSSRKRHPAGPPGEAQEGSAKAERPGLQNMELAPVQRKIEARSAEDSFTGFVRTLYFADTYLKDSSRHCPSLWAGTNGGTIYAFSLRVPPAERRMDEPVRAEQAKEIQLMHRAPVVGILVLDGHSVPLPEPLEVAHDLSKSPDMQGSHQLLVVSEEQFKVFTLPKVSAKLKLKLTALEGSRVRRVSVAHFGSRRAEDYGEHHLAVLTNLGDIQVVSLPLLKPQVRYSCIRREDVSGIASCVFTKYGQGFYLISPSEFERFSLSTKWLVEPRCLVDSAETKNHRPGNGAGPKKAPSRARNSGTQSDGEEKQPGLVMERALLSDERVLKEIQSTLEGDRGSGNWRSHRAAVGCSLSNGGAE
UniProt O43660, sequence (O43660 whole entry): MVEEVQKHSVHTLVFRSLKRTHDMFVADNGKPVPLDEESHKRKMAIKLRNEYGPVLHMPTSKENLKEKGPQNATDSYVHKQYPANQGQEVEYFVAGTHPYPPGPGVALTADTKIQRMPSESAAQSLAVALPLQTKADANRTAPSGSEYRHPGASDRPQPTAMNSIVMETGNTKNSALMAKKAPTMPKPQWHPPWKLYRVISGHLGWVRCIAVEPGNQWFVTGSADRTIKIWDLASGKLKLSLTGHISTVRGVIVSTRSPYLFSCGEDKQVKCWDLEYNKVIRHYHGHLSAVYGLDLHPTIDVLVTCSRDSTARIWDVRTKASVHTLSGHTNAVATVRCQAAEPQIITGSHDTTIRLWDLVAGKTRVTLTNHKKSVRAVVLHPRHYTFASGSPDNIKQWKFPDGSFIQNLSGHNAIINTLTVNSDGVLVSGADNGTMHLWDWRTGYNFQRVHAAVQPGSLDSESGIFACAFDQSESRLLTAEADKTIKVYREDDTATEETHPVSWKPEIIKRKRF
UniProt Q8TB37, sequence (Q8TB37 whole entry): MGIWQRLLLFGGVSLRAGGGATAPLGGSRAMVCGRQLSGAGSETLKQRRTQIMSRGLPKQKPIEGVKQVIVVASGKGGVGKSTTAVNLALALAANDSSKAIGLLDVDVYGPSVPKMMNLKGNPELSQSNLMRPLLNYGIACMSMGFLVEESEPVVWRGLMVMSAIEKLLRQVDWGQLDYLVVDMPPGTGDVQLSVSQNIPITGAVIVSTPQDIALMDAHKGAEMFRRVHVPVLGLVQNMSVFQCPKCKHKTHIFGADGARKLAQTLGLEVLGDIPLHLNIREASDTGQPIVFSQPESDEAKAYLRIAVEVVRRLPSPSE

**Q.** SLC9A6 (UniProt Q92581) was tested. Which thermal stability z-score did it give?
**A.** -0.0692

**Q.** For CFAP36 (UniProt Q96G28), which thermal stability z-score is on record?
**A.** 0.267

**Q.** Which thermal stability z-score does the source give for TMEM70 (UniProt Q9BUB7) here?
**A.** -0.347

**Q.** Which thermal stability z-score does the source give for GEMIN6 (UniProt Q8WXD5) here?
**A.** -0.18

**Q.** For KCTD20 (UniProt Q7Z5Y7), which thermal stability z-score is on record?
**A.** -0.0693

**Q.** Which thermal stability z-score does the source give for MRFAP1 (UniProt Q9Y605) here?
**A.** -0.215

**Q.** Which thermal stability z-score does the source give for NUBPL (UniProt Q8TB37) here?
**A.** -0.498

**Q.** Which thermal stability z-score does the source give for PLRG1 (UniProt O43660) here?
**A.** -0.0202

**Q.** Which thermal stability z-score does the source give for LLGL2 (UniProt Q6P1M3) here?
**A.** -0.122

**Q.** Which thermal stability z-score does the source give for NELFE (UniProt P18615) here?
**A.** 0.467

**Q.** For ZCCHC11 (UniProt Q5TAX3), which thermal stability z-score is on record?
**A.** -0.287

**Q.** For SFN (UniProt P31947), which thermal stability z-score is on record?
**A.** 0.0759

**Q.** FARSA (UniProt Q9Y285) was tested. Which thermal stability z-score did it give?
**A.** -0.546

**Q.** With A0A0B4J2A0|SHPK as the target, how does the thermal stability z-score read?
**A.** -0.0688

**Q.** With POLA1 (UniProt P09884) as the target, how does the thermal stability z-score read?
**A.** 0.167

**Q.** For MACF1, which thermal stability z-score is on record?
**A.** -0.0441

**Q.** ALDH6A1 (UniProt Q02252) was tested. Which thermal stability z-score did it give?
**A.** 0.458

**Q.** With ASF1B (UniProt Q9NVP2) as the target, how does the thermal stability z-score read?
**A.** -0.0291

**Q.** PPP1CC (UniProt P36873) was tested. Which thermal stability z-score did it give?
**A.** -0.463

**Q.** How did the thermal stability z-score turn out when DCLK2 (UniProt Q8N568) was run?
**A.** 0.0433

**Q.** Which thermal stability z-score does the source give for HSDL1 (UniProt Q3SXM5) here?
**A.** -0.0958

**Q.** FYN (UniProt P06241) was tested. Which thermal stability z-score did it give?
**A.** -0.0839

**Q.** With CIC (UniProt Q96RK0) as the target, how does the thermal stability z-score read?
**A.** -0.131

**Q.** With DUSP12 (UniProt Q9UNI6) as the target, how does the thermal stability z-score read?
**A.** 0.123

**Q.** CDC34 (UniProt P49427) was tested. Which thermal stability z-score did it give?
**A.** -0.0805

**Q.** CCNA2 (UniProt P20248) was tested. Which thermal stability z-score did it give?
**A.** 0.18

**Q.** How did the thermal stability z-score turn out when OAS3 (UniProt Q9Y6K5) was run?
**A.** 0.257

**Q.** For COG8 (UniProt Q96MW5), which thermal stability z-score is on record?
**A.** 0.151

**Q.** How did the thermal stability z-score turn out when HNRNPA0 (UniProt Q13151) was run?
**A.** -0.776

**Q.** How did the thermal stability z-score turn out when FAM111B (UniProt Q6SJ93) was run?
**A.** 1.31

**Q.** Which thermal stability z-score does the source give for RLIM (UniProt Q9NVW2) here?
**A.** -0.0531

**Q.** With SIPA1L2 (UniProt Q9P2F8) as the target, how does the thermal stability z-score read?
**A.** 0.0316

**Q.** For CARS2 (UniProt Q9HA77), which thermal stability z-score is on record?
**A.** -0.517

**Q.** How did the thermal stability z-score turn out when RNF20 (UniProt Q5VTR2) was run?
**A.** -0.026

**Q.** Which thermal stability z-score does the source give for MITD1 (UniProt Q8WV92) here?
**A.** 0.109

**Q.** How did the thermal stability z-score turn out when EXOSC7 (UniProt Q15024) was run?
**A.** 0.0621

Compound: O=[As]([O-])(O)O.[K+] [potassium arsenate]
Experiment: as above
Conditions: HeLa; arsenate concentration 1 mM
Experimental: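 Cellular thermal proteome profiling in HeLa cells treated with 1 mM arsenate for 1 h (DMSO pretreatment), heated to ten temperatures (37-66.3 °C). Soluble protein was quantified by TMT mass spectrometry relative to DMSO controls; the thermal stability score was transformed to a z-score; mean of n = 3 experiments.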

**Q.** How did the thermal stability z-score turn out when ELMOD2 (UniProt Q8IZ81) was run?
**A.** 0.198

**Q.** For NCBP2 (UniProt P52298), which thermal stability z-score is on record?
**A.** -0.0118

**Q.** For BAX (UniProt Q07812), which thermal stability z-score is on record?
**A.** 1.46

**Q.** With KIAA1429 (UniProt Q69YN4) as the target, how does the thermal stability z-score read?
**A.** -0.0736

**Q.** PLA2G15 (UniProt Q8NCC3) was tested. Which thermal stability z-score did it give?
**A.** 0.38

**Q.** Which thermal stability z-score does the source give for KPNA3 (UniProt O00505) here?
**A.** -0.288

**Q.** With RAB33B (UniProt Q9H082) as the target, how does the thermal stability z-score read?
**A.** 0.955

**Q.** For ENAH (UniProt Q8N8S7), which thermal stability z-score is on record?
**A.** -0.515

**Q.** With IL1RAP (UniProt Q9NPH3) as the target, how does the thermal stability z-score read?
**A.** -0.164

**Q.** CDCA3 (UniProt Q99618) was tested. Which thermal stability z-score did it give?
**A.** -0.233

**Q.** PIGU (UniProt Q9H490) was tested. Which thermal stability z-score did it give?
**A.** 0.169

**Q.** For RCN2 (UniProt Q14257), which thermal stability z-score is on record?
**A.** 0.788

**Q.** With PNKD (UniProt Q8N490) as the target, how does the thermal stability z-score read?
**A.** 0.929

**Q.** How did the thermal stability z-score turn out when OGT (UniProt O15294) was run?
**A.** 0.254

**Q.** AHSA1 (UniProt O95433) was tested. Which thermal stability z-score did it give?
**A.** 0.423

**Q.** ATE1 (UniProt O95260) was tested. Which thermal stability z-score did it give?
**A.** -2.08

**Q.** For DIS3 (UniProt Q9Y2L1), which thermal stability z-score is on record?
**A.** -1.52

**Q.** How did the thermal stability z-score turn out when PDE3A (UniProt Q14432) was run?
**A.** -0.555

**Q.** With ISY1 (UniProt Q9ULR0) as the target, how does the thermal stability z-score read?
**A.** -0.872

**Q.** How did the thermal stability z-score turn out when MND1 (UniProt Q9BWT6) was run?
**A.** 0.296

**Q.** For DNAJC8 (UniProt O75937), which thermal stability z-score is on record?
**A.** 1.25

**Q.** With DDAH2 (UniProt O95865) as the target, how does the thermal stability z-score read?
**A.** 0.22

**Q.** Which thermal stability z-score does the source give for ATP1B3 (UniProt P54709) here?
**A.** -0.13

**Q.** Which thermal stability z-score does the source give for RNF31 (UniProt Q96EP0) here?
**A.** -0.255

**Q.** ACAA2 (UniProt P42765) was tested. Which thermal stability z-score did it give?
**A.** -0.24

**Q.** Which thermal stability z-score does the source give for GATB (UniProt O75879) here?
**A.** 0.0266

**Q.** With GCAT (UniProt O75600) as the target, how does the thermal stability z-score read?
**A.** 1.38

**Q.** For PSMC3 (UniProt P17980), which thermal stability z-score is on record?
**A.** -0.44

**Q.** Which thermal stability z-score does the source give for TMX1 (UniProt Q9H3N1) here?
**A.** -0.418

**Q.** Which thermal stability z-score does the source give for GMIP (UniProt Q9P107) here?
**A.** -0.0798

**Q.** For VASP (UniProt P50552), which thermal stability z-score is on record?
**A.** -0.33

**Q.** For COX19 (UniProt Q49B96), which thermal stability z-score is on record?
**A.** 0.412

**Q.** For VBP1 (UniProt P61758), which thermal stability z-score is on record?
**A.** -0.72

**Q.** How did the thermal stability z-score turn out when LENG1 (UniProt Q96BZ8) was run?
**A.** 0.544

**Q.** For PTGR2 (UniProt Q8N8N7), which thermal stability z-score is on record?
**A.** 0.744

**Q.** Which thermal stability z-score does the source give for RPL27A (UniProt P46776) here?
**A.** -0.482

**Q.** Which thermal stability z-score does the source give for SLC9A6 (UniProt Q92581) here?
**A.** -0.165

**Q.** How did the thermal stability z-score turn out when CFAP36 (UniProt Q96G28) was run?
**A.** 0.177

**Q.** For TMEM70 (UniProt Q9BUB7), which thermal stability z-score is on record?
**A.** 0.259

**Q.** Which thermal stability z-score does the source give for GEMIN6 (UniProt Q8WXD5) here?
**A.** -0.129

**Q.** Which thermal stability z-score does the source give for KCTD20 (UniProt Q7Z5Y7) here?
**A.** -0.0752

**Q.** How did the thermal stability z-score turn out when MRFAP1 (UniProt Q9Y605) was run?
**A.** -0.23

**Q.** For NUBPL (UniProt Q8TB37), which thermal stability z-score is on record?
**A.** -0.262

**Q.** Which thermal stability z-score does the source give for PLRG1 (UniProt O43660) here?
**A.** -0.346

**Q.** Which thermal stability z-score does the source give for LLGL2 (UniProt Q6P1M3) here?
**A.** -0.318

**Q.** How did the thermal stability z-score turn out when NELFE (UniProt P18615) was run?
**A.** 0.293

**Q.** Which thermal stability z-score does the source give for ZCCHC11 (UniProt Q5TAX3) here?
**A.** -0.424

**Q.** With SFN (UniProt P31947) as the target, how does the thermal stability z-score read?
**A.** -0.012

**Q.** How did the thermal stability z-score turn out when FARSA (UniProt Q9Y285) was run?
**A.** 0.0543

**Q.** Which thermal stability z-score does the source give for A0A0B4J2A0|SHPK here?
**A.** -0.112

**Q.** POLA1 (UniProt P09884) was tested. Which thermal stability z-score did it give?
**A.** -0.306

**Q.** Which thermal stability z-score does the source give for MACF1 here?
**A.** -0.308

**Q.** With ALDH6A1 (UniProt Q02252) as the target, how does the thermal stability z-score read?
**A.** 4.94

**Q.** For ASF1B (UniProt Q9NVP2), which thermal stability z-score is on record?
**A.** -0.169

**Q.** PPP1CC (UniProt P36873) was tested. Which thermal stability z-score did it give?
**A.** -0.446

**Q.** How did the thermal stability z-score turn out when DCLK2 (UniProt Q8N568) was run?
**A.** 0.0241

**Q.** HSDL1 (UniProt Q3SXM5) was tested. Which thermal stability z-score did it give?
**A.** -1.43

**Q.** Which thermal stability z-score does the source give for FYN (UniProt P06241) here?
**A.** -1.04

**Q.** CIC (UniProt Q96RK0) was tested. Which thermal stability z-score did it give?
**A.** -0.261

**Q.** Which thermal stability z-score does the source give for DUSP12 (UniProt Q9UNI6) here?
**A.** 1.05

**Q.** With CDC34 (UniProt P49427) as the target, how does the thermal stability z-score read?
**A.** 0.0868

**Q.** For CCNA2 (UniProt P20248), which thermal stability z-score is on record?
**A.** 1.25

**Q.** Which thermal stability z-score does the source give for OAS3 (UniProt Q9Y6K5) here?
**A.** -0.07

**Q.** For COG8 (UniProt Q96MW5), which thermal stability z-score is on record?
**A.** 0.149

**Q.** With HNRNPA0 (UniProt Q13151) as the target, how does the thermal stability z-score read?
**A.** -0.778

**Q.** For FAM111B (UniProt Q6SJ93), which thermal stability z-score is on record?
**A.** 9.3

**Q.** With RLIM (UniProt Q9NVW2) as the target, how does the thermal stability z-score read?
**A.** 0.107

**Q.** For SIPA1L2 (UniProt Q9P2F8), which thermal stability z-score is on record?
**A.** -0.149

**Q.** CARS2 (UniProt Q9HA77) was tested. Which thermal stability z-score did it give?
**A.** -1.39

**Q.** Which thermal stability z-score does the source give for RNF20 (UniProt Q5VTR2) here?
**A.** -0.112

**Q.** How did the thermal stability z-score turn out when MITD1 (UniProt Q8WV92) was run?
**A.** 0.168

**Q.** With EXOSC7 (UniProt Q15024) as the target, how does the thermal stability z-score read?
**A.** -1.11
